For assay [1], the system named is wild type C57bl/6 mice. In words: Intraperitoneal glucose tolerance test (IPGTT). In kind it is in vivo, mouse. Conditions: 15 min before 2 g glucose/kg ip, vs saline control. The protocol: Whole blood was collected for glucose and insulin measurements from 10-week-old wild type maleC57bl/6 mice. After a 4 hour fast, the mice were divided into three groups and given an intraperitoneal injection (ip) of either saline, 30 nmol/kg peptide (FIG. 9A) or 200 nmol/kg peptide (FIG. 9B). 15 min after the FOL-014 or saline (control) injections, the mice were administered 2 g of glucose/kg ip. Blood glucose concentrations were measured at 5, 15, 30, 45 and 60 minutes after the glucose injection. Statistical calculations were performed using student's t-test. […] In addition, the difference was significant at 15, 30 and 45 minutes.

Assay [2] deals with INS-1 β-cells. As to the kind of experiment: Insulin secretion from INS-1 cells (Examples 4 and 6). In kind it is cell-based, rat. Conditions: Example 6, 6 μM peptide, KRB buffer, 60 min, vs unstimulated control cells. The protocol:
To investigate the stimulatory effect of FOL-005 on insulin secretion, INS-1 β-cells were used in the following experiments. Cells were seeded overnight in cRPMI and then washed with PBS before pre-incubation for 60 min at 37° C. in Krebs-Ringer bicarbonate buffer (KRB), pH 7.4, supplemented with 10 mM HEPES, 0.1% bovine serum albumin. After pre-incubation, the buffer was changed and the INS-1 cells were incubated at different test conditions (0 mM, 5 mM or 20 mM glucose) and stimulated with peptide FOL-005 or FOL-015 (SEQ ID NO: 158) or left untreated during 60 min at 37° C. Immediately after incubation, an aliquot of the buffer was removed and frozen for subsequent assay of insulin with an insulin radioimmunoassay kit.
INS-1 β-cells were used to investigate the stimulatory effect of FOL-014 on insulin secretion. Cells were seeded overnight and then washed with PBS before pre-incubation for 60 min at 37° C. in Krebs-Ringer bicarbonate buffer (KRB), pH 7.4, supplemented with 10 mM HEPES, 0.1% bovine serum albumin. After pre-incubation, the buffer was changed and the INS-1 cells were incubated in new KRB buffer supplemented with 10 mM HEPES, 0.1% bovine serum albumin and stimulated with peptide FOL-014 or left untreated during 60 min at 37° C. Immediately after incubation, an aliquot of the buffer was removed and frozen for subsequent assay of insulin.

For assay [3], the system named is INS-1E cells. As to the kind of experiment: Insulin secreting capacity after 72 hours of glucotoxic conditions (Examples 19, 22). In kind it is cell-based, rat. The following applies: Example 19, 20 mM glucose 72 hours with peptide, then 16.7 mM glucose 1 h. As for the experimental part: To investigate the β-cell protective effect of FOL-056, we subjected INS-1E to cytotoxic levels of glucose for 72 hours. Rat INS-1E cells were seeded in 96-well plates (2×10^3 cells/well) in cRPMI medium. Following 72 hours of incubation, the medium was changed to RPMI containing 20 mM glucose with or without FOL-056 or FOL-014 and were cultured at 37° C. during an additional 72 hours to induce glucotoxicity. RPMI containing 5 mM glucose was included as a low glucose control. Following 72 hours, the medium was removed and the INS-1E cells were equilibrated in Krebs-Ringer bicarbonate buffer (KREB), pH 7.4, (supplemented with 10 mM HEPES, 0.1% bovine serum albumin and 2.8 mM glucose) for 2 hours. After equilibration, the buffer was changed and the INS-1E cells were incubated in KREBs containing 16.7 mM glucose […] during 1 h. Immediately after incubation, an aliquot of the buffer was removed and frozen for subsequent assay of insulin content.
To investigate the β-cell protective effect of several novel peptide fragments derived from FOL-005 and FOL-014, INS-1 cells were subjected to cytotoxic levels of glucose for 72 hours. […] In order to correct for the variance between experiments, all values were normalized to, and expressed as percentage of the average value of the high glucose control in the individual experiments. […]

The subject of assay [4] is human pancreatic β-cell line 1.2B4. As to the kind of experiment: Insulin secretion from 1.2B4 human β-cells. In kind it is cell-based. The following applies: 100 nM peptide, 16.7 mM glucose, 60 minutes. The protocol:
In order to test the effect of FOL-014 and FOL-056 in human cells, the human pancreatic β-cell line 1.2B4 were cultured at 37° C. and 5% CO2 in RPMI 1640 supplemented with 10% fetal bovine serum, 50 IU/mL penicillin, 50 mg/L streptomycin, 1 mM L-glutamine. 1.2B4 cells were seeded in 24-well plates in RPMI medium and following overnight incubation, the medium was removed before pre-incubation for 40 min at 37° C. in Krebs-Ringer bicarbonate buffer, pH 7.4, supplemented with 10 mM HEPES, 0.1% bovine serum albumin and 1.0 mM glucose. Following pre-incubation, the buffer was exchanged with fresh Krebs-Ringer buffer as described above and supplemented with specific glucose concentrations, 1 mM or 16.7 mM. FOL-014, FOL-056 or Liraglutide was added at a concentration of 100 nM in the presence of 16.7 mM glucose. Immediately after 60 minutes incubation at 37° C., an aliquot of the buffer was removed and frozen for subsequent insulin ELISA assay. (FIG. 18)

“Also recorded” adds a separate entry of the source.

In the case of “KPLAEIDSIELSYGIK (MISC_FEATURE - peptide, FOL-014)”, the plasma glucose levels result was “lowered the plasma glucose levels with a significant effect at 45 minutes after the glucose injection” in assay [1] (30 nmol/kg ip); “significantly lowered the plasma glucose levels as compared to the control when measured as area under the curve; also recorded: significantly lowered the plasma glucose levels as compared to the control at 15 minutes, 30 minutes and 45 minutes” in assay [1] (200 nmol/kg ip). Moreover, the insulin secretion entry in assay [2] is “secreted more insulin compared to unstimulated control cells”; in assay [4], “increase the insulin secretion capacity in 1.2B4 human β-cells; also recorded: significantly increased the insulin secretion as compared with cells treated with an un-supplemented high glucose buffer”. Further, in assay [3], the “insulin secreting ability after glucotoxic conditions” value is “significantly improved the insulin secreting ability of the β-cells as compared with high glucose media alone”.

The values are drawn from patent publication US20240327459A1, “PEPTIDE FRAGMENTS FOR TREATMENT OF DIABETES” (Follicum AB, priority 2018, published 2024).
